Paper PMC10053369, “Recombinant Analogs of Sea Anemone Kunitz-Type Peptides Influence P2X7 Receptor Activity in Neuro-2a Cells” (Marine Drugs, 2023)

Assays:
Neuro-2a cells = test: Cytoprotection against ATP-induced cell death (MTT assay); assay type: cell-based, mouse
Method: (§1) Neuro-2a neuroblastoma cells (ATCC® CCL-131™) were obtained from American Type Culture Collection (Manassas, VA, USA). The cells were cultivated in DMEM medium (BioloT, St. Petersburg, Russia) supplemented with 10% of fetal bovine serum (BioloT, St. Petersburg, Russia) and 1% penicillin/streptomycin (BioloT, St. Petersburg, Russia) at 37 °C and 5% CO2. Initially, cells were incubated in cultural flasks until sub-confluent (~80%). For testing, Neuro-2a cells were seeded in 96-well plates and experiments were started after 24 h.
The cytoprotective effect of peptides was assessed in Neuro-2a cells using the MTT assay. In brief, an aliquot (180μL) of cell suspension with a nominal cell density of 3 × 10^4 cells/well was dispensed into 96-well plates. The cells were incubated for 24 h in a humidified atmosphere containing 5% CO2 to allow cell attachment. At the end of the preincubation period, ATP (Sigma-Aldrich, St. Louis, MO, USA) was added to the cells at a concentration of 4 mM. Studied peptides were added to the cells at concentrations of 0.1, 1.0 or 10.0 μM for 1h prior to the addition of ATP. After incubation for 48 h at 37 °C cell viability was detected using the MTT as described previously. The standard P2X7 inhibitor, A438079 (Sigma-Aldrich, St. Louis, MO, USA), at a concentration of 10 μM was used as a positive control.
(§2) All data were obtained in three independent replicates and calculated values were expressed as mean ± standard error of the mean (SEM). The Student’s t-test was performed using SigmaPlot 14.0 (Systat Software Inc., San Jose, CA, USA) to determine statistical significance.

P2X7 in Neuro-2a cells [1] = test: ATP-induced YO-PRO-1 uptake (P2X7 pore formation); assay type: cell-based, mouse
Method: as §1
Neuro-2a cells were seeded in 96 well plates at a density of 4 × 10^4 cells/well and incubated in DMEM for 24 h, 37 °C, 5% CO2. Then the cells were washed once with HBSS and filled with 180 μL of the same buffer. YO-PRO-1 (Sigma-Aldrich, St. Louis, MO, USA, 5 μM final concentration) was loaded into the wells, the cells were incubated for 15 min at 37 °C. Further, the studied peptides were added to the cells at concentrations of 10, 1, 0.1 and 0.01 μM and incubated for 10 min at 37 °C. After that ATP (4 mM final concentration) was added and the plates were incubated for an additional 10 min. The standard P2X7R inhibitor, A438079 (Sigma-Aldrich, St. Louis, MO, USA), was used as inhibitory control. Then the cells were washed three times with the buffer solution and fluorescence intensity was measured with PHERAstar FS plate reader (BMG, LABTECH, Ortenberg, Germany) at λex = 485 nm and λem= 520 nm in the “End Point” mode. The effectiveness of compounds was evaluated relative to control without ATP.
as §2

[2] = intrathecal; hind paw ipsilateral to the nerve injury; cited from earlier work
Source text: (§3) Activated P2X7 has also been reported to alter reactive oxygen species (ROS) in microglia/macrophages as was shown, for example, in primary rat microglial cells. In cultured neurons of the dorsal horn of the spinal ...

[3] = test system: cultured neurons of the dorsal horn of the spinal cord; details: cited from earlier work
Source text: as §3

[4] = test system: pancreatic ductal adenocarcinoma cells; details: ref [31]; cited from earlier work
[5] = test system: spontaneously hypertensive rats; details: intracerebroventricular; ref [8]; cited from earlier work
Source text: as §3

P2X7 in Neuro-2a cells [6] = test: ATP-induced Ca2+ influx (Fluo-8 AM); assay type: cell-based, mouse; details: for reduction of calcium level: 30 min pre-incubation, 1 mM ATP
Method: as §1
Neuro-2a cells were seeded in 96-well plates at a density of 4 × 10^4 cells/well and incubated in DMEM for 24 h at 37 °C, 5% CO2. Then the cells were washed twice with culture medium and loaded with 5 μM Fluo-8 AM (Abcam, Cambridge, UK) dye and 1 μM Pluronic® F-127 (Sigma-Aldrich, St. Louis, MO, USA), and incubated for 40 min at 37 °C in HBSS: 140 mM NaCl, 5 mM KCl, 0.8 mM MgCl2, 2 mM CaCl2, 10 mM glucose, 10 mM HEPES, pH 7.4. Then the cells were washed two times with the same solution but without the fluorescent dye and treated with the studied peptides for 30 min at RT in the dark. In some experiments Ca^2+-free medium was used: 140 mM NaCl, 5 mM KCl, 0.8 mM MgCl2, 10 mM glucose, 10 mM HEPES, 5 mM EGTA, pH 7.4. ATP (1 mM final concentration) was added using a microinjector (20 μL/well) 10 s later the baseline recording and the readings were taken up to 50 s in 1 s intervals. The standard P2X7 inhibitor, A438079 (Sigma-Aldrich, St. Louis, MO, USA), was used as inhibitory control. Ionomycin (Sigma-Aldrich, St. Louis, MO, USA) and BHQ were used to generate a generic calcium signal in cells. 2,5,-di(t-butyl) hydroquinone (BHQ) was synthesized and kindly provided by Dr. Polonik S.N. (PIBOC FEBRAS). Fluo-8 was excited at 485 nm, and the emission at 520 nm was measured with a PHERAstar®FS plate reader (BMG LABTECH, Ortenberg, Germany). The data were processed by MARS Data Analysis v. 3.01R2 (BMG Labtech, Ortenberg, Germany). Mean values and standard error of peak height calcium were calculated.
as §2

[7] = ref [14],[17],[18],[21],[38],[39],[40], cited from earlier work
Source text: (§4) The studied peptides are analogs of sea anemone Kunitz-type peptides and attract our attention due to their wide spectrum of biological activity and ability to interact with important molecular targets.

TRPV1 receptor = details: modulator of TRPV1, depends on nature and strength of activation stimuli; ref [14],[17],[18],[21],[38],[39],[40]; cited from earlier work
Source text: as §4

## Clc1cccc(-c2nnnn2Cc2cccnc2)c1Cl [A438079, reference compound]
Neuro-2a cells; pre-incubation with 10 μM A438079, then 4 mM ATP, 48 h, mean ± SE, n = 3
  increase in cell viability compared with ATP alone: 18.2 ± 2.8%
P2X7 in Neuro-2a cells [1]; 10 μM A438079 pre-incubation, 4 mM ATP, mean ± SE, n = 3
  inhibition of YO-PRO-1 dye penetration vs ATP alone: up to 32%
P2X7 in Neuro-2a cells [1]; 0.01–10 μM peptides or 10 μM A438079, 10 min pre-incubation, 4 mM ATP
  ATP-induced uptake of YO-PRO-1: attenuated dye accumulation
[2]
  mechanical hypersensitivity: suppressed the development of mechanical hypersensitivity
[3]
  ATP or Bz-ATP-induced ROS production: eliminated
[4]
  ATP-induced pore formation and cell death: very modest effects on ATP-induced pore formation and cell death

## Cc1nc(N=Nc2ccc(S(=O)(=O)O)cc2S(=O)(=O)O)c(COP(=O)(O)O)c(C=O)c1O [PPADS]
[5]
  infarct volume and number of irreversibly damaged cells: reduced infarct volume and the number of irreversibly damaged cells

## APHC3: recombinant Kunitz-type peptide from H. magnifica (=H. crispa), UniProtKB C0HJF3 (GSICLEPKVVGPCTAYFPRFYFNSETGKCTPFIYGGCEGNGNNFETLRACRGICRA; left off: thioredoxin, end not stated, cleaved)
Neuro-2a cells; long-time application of ATP (4 mM, 48 h)
  protection from ATP-induced death: partially protected neuroblastoma cells from ATP-induced death
P2X7 in Neuro-2a cells [6]; 0.1 μM peptide, mean ± SE, n = 3
  reduction of calcium level: 53.2 ± 24.95%
P2X7 in Neuro-2a cells [6]; 0.1–10 μM peptide
  reduction of calcium level: significantly reduced the calcium level
P2X7 in Neuro-2a cells [6]; short-term effect
  effect on Ca2+ influx (summary in discussion): a significant effect on Ca^2+ influx into cells
P2X7 in Neuro-2a cells [1]; short-term effect
  entry of YO-PRO-1 into cells (summary in discussion): regulating the entry of low molecular weight fluorescent dye YO-PRO-1 into cells
[7]; ex vivo and in vivo
  activity in models of inflammatory diseases: potent activity
[7]
  anti-inflammatory and analgesic activity: significant anti-inflammatory and analgesic activity
TRPV1 receptor
  EC50: ~18 nM
